Reference: patent publication US20070259329A1, “Anergy-inducing cellular composition” (BioVerde. Inc., priority 2006, published 2007)
Marks after values point to notes of the source that are not given here.

Legend:
Format in all cases: cell-based, murine (C57BI/6 splenocytes)
[1] = target: T1, CD2 (Mus musculus, UniProt P08920); assay: Lymphocyte marker analysis by flow cytometry, CD2 epitope; settings: for percent expression of cell surface molecule CD2: epitope-specific antibody, average of triplicate; for average percent suppression in epitope detection, CD2: relative to untreated control (0 ppm)
T1 construct: endogenous in cells; host or cells: murine splenocytes (C57Bl/6)
T1 sequence (P08920 23-344): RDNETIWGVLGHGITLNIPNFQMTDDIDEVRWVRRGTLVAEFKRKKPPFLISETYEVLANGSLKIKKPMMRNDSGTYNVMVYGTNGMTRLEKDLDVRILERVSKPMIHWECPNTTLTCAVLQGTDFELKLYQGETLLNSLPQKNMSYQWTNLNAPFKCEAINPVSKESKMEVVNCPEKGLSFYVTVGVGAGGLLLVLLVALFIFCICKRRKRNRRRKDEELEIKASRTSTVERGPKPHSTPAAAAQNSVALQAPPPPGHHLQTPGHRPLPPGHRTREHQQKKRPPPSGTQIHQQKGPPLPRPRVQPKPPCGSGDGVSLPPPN
Method: (§1) To evaluate the action of EGCG in rendering cells to become anergy-inducing, murine splenocytes were used as a model system. Splenocytes were collected from BALB/c (H2 K^b) and C57BI/6 (H2 K^d) female mice of 8 to 13 weeks of age in HBSS (BioWhittaker) with 1% FCS. Cells were washed with HBSS (1% FCS) and treated with the media solution which contains RPMI 1640 (Sigma-Aldrich), 10 mM HEPES (Dojindo), and various concentrations of EGCG (98% purity, Roche) described in the examples.
(§2) Flow cytometric analyses of surface epitopes for the control and EGCG-treated splenocytes were performed using a series of fluorescence-labeled monoclonal anti-mouse CD and MHC and corresponding isotype control antibodies (eBioscience: CD2, CD36, CD4, CD11a, CD25, CD 28, CD 49d and CD80; Pharmingen: TCRαβ and MHC II). Murine splenocytes (C57BI/6) were treated with red blood cell lysis buffer (eBioscience) for 5 min prior to EGCG treatments. Immediately following EGCG-treatments, the splenocytes were washed with RPMI 1640 (10% FCS) and a staining buffer (eBioscience) at 4 degree C. Each splenocyte sample was reconstituted as a 50 μl aliquot in the same staining buffer and subject to antibody labeling. After washing twice the samples with the staining buffer, a minimum of 10,000 events per sample was collected on a Becton Dickinson FACScan flow cytometer.

[2] = target: T2, CD3ε (Mus musculus, UniProt P22646); assay: Lymphocyte marker analysis by flow cytometry, CD3ε epitope; settings: for percent expression of cell surface molecule CD3ε: epitope-specific antibody, average of triplicate; for average percent suppression in epitope detection, CD3ε: relative to untreated control (0 ppm)
T2 construct: endogenous in cells; host or cells: murine splenocytes (C57Bl/6)
T2 sequence (P22646 22-189): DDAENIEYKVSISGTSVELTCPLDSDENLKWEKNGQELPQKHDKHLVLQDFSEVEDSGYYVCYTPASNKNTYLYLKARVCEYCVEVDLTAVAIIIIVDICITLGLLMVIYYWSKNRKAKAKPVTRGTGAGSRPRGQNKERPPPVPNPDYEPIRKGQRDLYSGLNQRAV
T2 sequence (P11942 23-182 partner): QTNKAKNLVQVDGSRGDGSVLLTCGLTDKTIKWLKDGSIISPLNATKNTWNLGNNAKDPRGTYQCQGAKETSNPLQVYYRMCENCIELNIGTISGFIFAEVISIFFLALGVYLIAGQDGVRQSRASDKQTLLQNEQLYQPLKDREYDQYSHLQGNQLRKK
T2 sequence (P04235 22-173 partner): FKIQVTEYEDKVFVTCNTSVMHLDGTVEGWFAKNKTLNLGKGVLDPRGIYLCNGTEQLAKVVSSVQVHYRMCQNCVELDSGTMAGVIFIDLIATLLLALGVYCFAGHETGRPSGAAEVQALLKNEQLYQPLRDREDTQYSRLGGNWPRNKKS
T2 sequence (P24161 22-164 partner): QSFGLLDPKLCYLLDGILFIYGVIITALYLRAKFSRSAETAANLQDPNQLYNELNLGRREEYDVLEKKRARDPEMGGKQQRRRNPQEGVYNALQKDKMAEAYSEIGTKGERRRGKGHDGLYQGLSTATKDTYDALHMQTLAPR
Method: as §1, §2

[3] = target: T3, CD28 (Mus musculus, UniProt P31041); assay: Lymphocyte marker analysis by flow cytometry, CD28 epitope; settings: for percent expression of cell surface molecule CD28: epitope-specific antibody, average of triplicate; for average percent suppression in epitope detection, CD28: relative to untreated control (0 ppm)
T3 construct: endogenous in cells; host or cells: murine splenocytes (C57Bl/6)
T3 sequence (P31041 20-218): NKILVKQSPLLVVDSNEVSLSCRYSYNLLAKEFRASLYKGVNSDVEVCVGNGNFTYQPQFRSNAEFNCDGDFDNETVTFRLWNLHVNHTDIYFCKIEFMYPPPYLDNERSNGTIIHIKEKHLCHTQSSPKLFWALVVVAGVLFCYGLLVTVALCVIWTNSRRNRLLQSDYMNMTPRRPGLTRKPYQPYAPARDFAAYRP
Method: as §1, §2

[4] = target: T4, CD49d (Mus musculus, UniProt Q00651); assay: Lymphocyte marker analysis by flow cytometry, CD49d epitope; settings: for percent expression of cell surface molecule CD49d: epitope-specific antibody, average of triplicate; for average percent suppression in epitope detection, CD49d: relative to untreated control (0 ppm)
T4 construct: endogenous in cells; host or cells: murine splenocytes (C57Bl/6)
T4 sequence (Q00651 41-1039): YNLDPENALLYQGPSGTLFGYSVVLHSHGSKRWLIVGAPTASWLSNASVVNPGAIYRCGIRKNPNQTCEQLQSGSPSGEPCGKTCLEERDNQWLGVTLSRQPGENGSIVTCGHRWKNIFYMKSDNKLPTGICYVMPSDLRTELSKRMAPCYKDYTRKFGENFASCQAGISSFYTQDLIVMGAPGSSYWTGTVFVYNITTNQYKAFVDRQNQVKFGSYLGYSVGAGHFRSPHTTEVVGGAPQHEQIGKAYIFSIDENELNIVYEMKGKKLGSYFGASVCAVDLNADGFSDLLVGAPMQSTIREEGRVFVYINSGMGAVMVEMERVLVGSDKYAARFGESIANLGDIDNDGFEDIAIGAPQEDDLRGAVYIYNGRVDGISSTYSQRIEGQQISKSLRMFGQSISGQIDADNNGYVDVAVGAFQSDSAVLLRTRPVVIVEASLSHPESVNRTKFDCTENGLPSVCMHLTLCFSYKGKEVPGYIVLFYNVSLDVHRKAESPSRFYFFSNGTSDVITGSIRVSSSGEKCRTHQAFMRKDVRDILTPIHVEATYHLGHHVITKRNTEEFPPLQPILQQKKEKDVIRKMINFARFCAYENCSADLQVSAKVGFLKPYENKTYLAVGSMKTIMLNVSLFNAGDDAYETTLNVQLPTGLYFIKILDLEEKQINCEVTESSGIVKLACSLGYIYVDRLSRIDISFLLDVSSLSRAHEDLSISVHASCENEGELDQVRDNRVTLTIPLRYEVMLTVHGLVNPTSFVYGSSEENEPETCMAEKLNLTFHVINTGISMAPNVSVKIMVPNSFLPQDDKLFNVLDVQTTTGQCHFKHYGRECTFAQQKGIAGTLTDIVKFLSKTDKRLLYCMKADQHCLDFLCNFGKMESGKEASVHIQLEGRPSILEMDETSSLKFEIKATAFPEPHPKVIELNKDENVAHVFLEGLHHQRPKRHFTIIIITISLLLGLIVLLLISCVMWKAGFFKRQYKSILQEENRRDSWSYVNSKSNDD
Method: as §1, §2

[5] = target: T5, CD80 (Mus musculus, UniProt Q00609); assay: Lymphocyte marker analysis by flow cytometry, CD80 epitope; settings: for percent expression of cell surface molecule CD80: epitope-specific antibody, average of triplicate; for average percent suppression in epitope detection, CD80: relative to untreated control (0 ppm)
T5 construct: endogenous in cells; host or cells: murine splenocytes (C57Bl/6)
T5 sequence (Q00609 38-306): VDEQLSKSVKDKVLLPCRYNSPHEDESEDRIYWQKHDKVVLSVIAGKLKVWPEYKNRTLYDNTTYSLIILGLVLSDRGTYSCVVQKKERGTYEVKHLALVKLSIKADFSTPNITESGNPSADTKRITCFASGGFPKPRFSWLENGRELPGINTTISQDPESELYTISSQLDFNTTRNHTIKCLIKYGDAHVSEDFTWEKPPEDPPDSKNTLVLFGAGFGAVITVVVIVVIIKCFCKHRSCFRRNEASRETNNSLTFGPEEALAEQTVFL
Method: as §1, §2

- percent expression of cell surface molecule CD2 ([1]; EGCg 100 ppm): 85.9%
- average percent suppression in epitope detection, CD2 ([1]; EGCg 100 ppm): (9.5)** percent
- percent expression of cell surface molecule CD2 ([1]; EGCg 200 ppm): 90.8%
- average percent suppression in epitope detection, CD2 ([1]; EGCg 200 ppm): (4.3)** percent
- dose dependence of reduction in epitope detection, CD3ε ([2]; 100 vs 200 ppm): dose-dependent reduction
- percent expression of cell surface molecule CD3ε ([2]; EGCg 100 ppm): 20.2%
- average percent suppression in epitope detection, CD3ε ([2]; EGCg 100 ppm): (37.5)* percent
- percent expression of cell surface molecule CD3ε ([2]; EGCg 200 ppm): 5.6%
- average percent suppression in epitope detection, CD3ε ([2]; EGCg 200 ppm): (82.7)** percent
- blocking of CD3ε by EGCG ([2]; summary of TABLE 1): strongly blocked
- binding of the CD28-specific monoclonal antibody, of the control ([3]; EGCG treatment, summary of TABLE 1): about 50%
- percent expression of cell surface molecule CD28 ([3]; EGCg 100 ppm): 8.7%
- average percent suppression in epitope detection, CD28 ([3]; EGCg 100 ppm): (50.6)** percent
- percent expression of cell surface molecule CD28 ([3]; EGCg 200 ppm): 9.4%
- average percent suppression in epitope detection, CD28 ([3]; EGCg 200 ppm): (46.6)** percent
- percent expression of cell surface molecule CD49d ([4]; EGCg 100 ppm): 19.7%
- average percent suppression in epitope detection, CD49d ([4]; EGCg 100 ppm): (54.1)** percent
- percent expression of cell surface molecule CD49d ([4]; EGCg 200 ppm): 20.5%
- average percent suppression in epitope detection, CD49d ([4]; EGCg 200 ppm): (52.2)** percent
- blocking of CD49d by EGCG ([4]; summary of TABLE 1): blocked
- percent expression of cell surface molecule CD80 ([5]; EGCg 100 ppm): 3.1%
- average percent suppression in epitope detection, CD80 ([5]; EGCg 100 ppm): (85.4)** percent
- percent expression of cell surface molecule CD80 ([5]; EGCg 200 ppm): 9.7%
- average percent suppression in epitope detection, CD80 ([5]; EGCg 200 ppm): (16.4)** percent
Substance: (−)-epigallocatechin-3-o-gallate [EGCG]
